What was measured:
Format in all cases: in vivo
Zea mays (ZEAMX) = experiment: F. Post-emergence effect on useful plants, ZEAMX; conditions: useful plant
Experimental: (§1) Seeds of monocotyledonous and dicotyledonous weeds and crop plants were placed in sandy loam in plastic or organic planting pots, covered with soil and cultivated in a greenhouse under controlled growth conditions. 2 to 3 weeks after sowing, the test plants were treated at the one-leaf stage. The compounds of the invention, formulated in the form of wettable powders (WP) or as emulsion concentrates (EC), were then sprayed onto the green parts of the plants as aqueous suspension or emulsion with addition of 0.5% additive at a water application rate of 600 l/ha (converted). After the test plants had been kept in the greenhouse under optimum growth conditions for about 3 weeks, the activity of the preparations was rated visually in comparison to untreated controls.
(§2) For example, • 100% efficacy=plants have died, • 0% action=like untreated control plants.
(§3) Tables F1a to F4 below show the effects of selected compounds of the general formula (I) according to table 1 on various useful plants at an application rate corresponding to 320 g/ha or less, which were obtained by the experimental procedure mentioned above.

Oryza sativa (ORYSA) [1] = experiment: F. Post-emergence effect on useful plants, ORYSA; conditions: useful plant, application rate 80 g/ha
Experimental: as §1, §2, §3

Glycine max (GLXMA) = experiment: D. Pre-emergence effect on useful plants, GLXMA; conditions: useful plant
Excerpt: (§4) Seeds of monocotyledonous and dicotyledonous weed plants and crop plants were placed in plastic or organic planting pots and covered with soil. The compounds of the invention, formulated in the form of wettable powders (WP) or as emulsion concentrates (EC), were then applied to the surface of the covering soil as aqueous suspension or emulsion with addition of 0.5% additive at a water application rate equivalent to 600 l/ha (converted). After the treatment, the pots were placed in a greenhouse and kept under good growth conditions for the test plants. After about 3 weeks, the efficacy of the preparations was scored visually in comparison with untreated controls as percentages. For example, • 100% efficacy=plants have died, • 0% efficacy=like untreated control plants.
(§5) Tables D1a to D5b below show the effects of selected compounds of the general formula (I) according to table 1 on various useful plants at an application rate corresponding to 320 g/ha or less, which were obtained by the experimental procedure mentioned above.

Oryza sativa (ORYSA) [2] = experiment: D. Pre-emergence effect on useful plants, ORYSA; conditions: useful plant, application rate 80 g/ha
Excerpt: as §4, §5

[3] = system: Alopecurus myosuroides (ALOMY); experiment: B. Herbicidal post-emergence efficacy, ALOMY; conditions: rated visually after about 3 weeks
Experimental: (§6) Seeds of mono- and dicotyledonous weed plants were placed in plastic pots in sandy loam soil (doubly sown with in each case one species of mono- or dicotyledonous weed plants per pot), covered with soil and cultivated in a greenhouse under controlled growth conditions. 2 to 3 weeks after sowing, the test plants were treated at the one-leaf stage. The compounds of the invention, formulated in the form of wettable powders (WP) or as emulsion concentrates (EC), were applied onto the green parts of the plants as aqueous suspension or emulsion with addition of 0.5% additive at a water application rate of 600 liters per hectare (converted). After the test plants had been kept in the greenhouse under optimum growth conditions for about 3 weeks, the activity of the preparations was rated visually in comparison to untreated controls.
(§7) For example, • 100% efficacy=plants have died, • 0% efficacy=like untreated control plants
(§8) Tables B1a to B12c below show the effects of selected inventive compounds of the general formula (I) according to table 1 on various harmful plants at an application rate corresponding to 1280 g/ha or less, which were obtained by the experimental procedure mentioned above.

[4] = system: Matricaria inodora (MATIN); experiment: B. Herbicidal post-emergence efficacy, MATIN
Experimental: as §6, §7, §8

Lolium rigidum (LOLRI) = experiment: E. Herbicidal post-emergence efficacy, LOLRI
Experimental: as §1, §2
Tables E1a to E12b below show the effects of selected compounds of the general formula (I) according to table 1 on various harmful plants at an application rate corresponding to 320 g/ha or less, which were obtained by the experimental procedure mentioned above.

Compound: O=S(=O)(CCC(F)(F)F)Oc1c(Br)cccc1Oc1ncc(F)cn1 [Example I-43]
- Post-emergence efficacy against ZEAMX in % (Zea mays (ZEAMX); application rate 80 g/ha): 0%
- Post-emergence efficacy against ZEAMX in % (Zea mays (ZEAMX); application rate 320 g/ha): 0%

Compound: CC(C)CCS(=O)(=O)Oc1ccccc1Oc1ncc(Cl)cn1 [Example I-25]
- Post-emergence efficacy against ORYSA in % (Oryza sativa (ORYSA) [1]): 0%
- Pre-emergence efficacy against GLXMA in % (Glycine max (GLXMA); application rate 80 g/ha): 0%
- Pre-emergence efficacy against ORYSA in % (Oryza sativa (ORYSA) [2]): 0%

Compound: O=S(=O)(CCCCl)Oc1ccccc1Oc1ncc(F)cn1 [Example I-5]
- Post-emergence efficacy against ORYSA in % (Oryza sativa (ORYSA) [1]): 20%
- Post-emergence efficacy against ALOMY in % ([3]; 1280 g/ha): 100%
- Post-emergence efficacy against MATIN ([4]; 1280 g/ha): 90%
- Post-emergence efficacy against LOLRI in % (Lolium rigidum (LOLRI); application rate 320 g/ha): 90%

Compound: O=S(=O)(CCCC(F)(F)F)Oc1c(Cl)cccc1Oc1ncc(Cl)cn1 [Example I-39]
- Post-emergence efficacy against ZEAMX in % (Zea mays (ZEAMX); application rate 80 g/ha): 20%

Compound: O=S(=O)(CCCC(F)(F)F)Oc1c(F)cccc1Oc1ncc(Cl)cn1 [Example I-49]
- Post-emergence efficacy against ALOMY in % ([3]; 1280 g/ha): 90%
- Post-emergence efficacy against LOLRI in % (Lolium rigidum (LOLRI); application rate 320 g/ha): 80%

Compound: N#Cc1cccc(Oc2ncc(Cl)cn2)c1OS(=O)(=O)CCCC(F)(F)F [Example I-81]
- Pre-emergence efficacy against GLXMA in % (Glycine max (GLXMA); application rate 80 g/ha): 0%
- Post-emergence efficacy against LOLRI in % (Lolium rigidum (LOLRI); application rate 320 g/ha): 80%

Compound: Cc1cccc(Oc2ncc(Cl)cn2)c1OS(=O)(=O)CC1CC(F)(F)C1 [Example I-74]
- Post-emergence efficacy against ZEAMX in % (Zea mays (ZEAMX); application rate 80 g/ha): 0%
- Post-emergence efficacy against ALOMY in % ([3]; 1280 g/ha): 90%

Compound: O=S(=O)(CCC(F)(F)F)Oc1c(Cl)cccc1Oc1ncc(Br)cn1 [Example I-32]
- Post-emergence efficacy against ZEAMX in % (Zea mays (ZEAMX); application rate 80 g/ha): 20%
- Post-emergence efficacy against ALOMY in % ([3]; 1280 g/ha): 90%
- Pre-emergence efficacy against GLXMA in % (Glycine max (GLXMA); application rate 80 g/ha): 0%
- Pre-emergence efficacy against GLXMA in % (Glycine max (GLXMA); application rate 320 g/ha): 0%

Compound: O=S(=O)(CCC(F)=C(F)F)Oc1c(Cl)cccc1Oc1ncc(Cl)cn1 [Example I-73]
- Post-emergence efficacy against ZEAMX in % (Zea mays (ZEAMX); application rate 80 g/ha): 20%
- Post-emergence efficacy against ALOMY in % ([3]; 1280 g/ha): 90%

Compound: O=S(=O)(CCCC(F)(F)F)Oc1ccccc1Oc1ncc(Cl)cn1 [Example I-10]
- Post-emergence efficacy against LOLRI in % (Lolium rigidum (LOLRI); application rate 320 g/ha): 90%

Compound: O=S(=O)(CCCCl)Oc1c(F)cccc1Oc1ncc(Cl)cn1 [Example I-14]
- Post-emergence efficacy against ALOMY in % ([3]; 320 g/ha): 100%
- Post-emergence efficacy against ALOMY in % ([3]; 1280 g/ha): 100%

Compound: O=S(=O)(CCCCl)Oc1ccccc1Oc1ncc(Cl)cn1 [Example I-2]
- Post-emergence efficacy against ZEAMX in % (Zea mays (ZEAMX); application rate 80 g/ha): 20%
- Post-emergence efficacy against ORYSA in % (Oryza sativa (ORYSA) [1]): 0%
- Post-emergence efficacy against ALOMY in % ([3]; 320 g/ha): 90%
- Post-emergence efficacy against ALOMY in % ([3]; 1280 g/ha): 90%

Compound: COCCS(=O)(=O)Oc1c(F)cccc1Oc1ncc(Cl)cn1 [Example I-52]
- Post-emergence efficacy against ZEAMX in % (Zea mays (ZEAMX); application rate 80 g/ha): 0%
- Post-emergence efficacy against ZEAMX in % (Zea mays (ZEAMX); application rate 320 g/ha): 0%

Compound: O=S(=O)(CCC1CC1)Oc1c(F)cccc1Oc1ncc(Cl)cn1 [Example I-55]
- Post-emergence efficacy against ALOMY in % ([3]; 1280 g/ha): 90%
- Pre-emergence efficacy against GLXMA in % (Glycine max (GLXMA); application rate 80 g/ha): 10%
- Post-emergence efficacy against LOLRI in % (Lolium rigidum (LOLRI); application rate 320 g/ha): 80%

Compound: O=S(=O)(CC1CC(F)(F)C1)Oc1c(F)cccc1Oc1ncc(Cl)cn1 [Example I-53]
- Post-emergence efficacy against ALOMY in % ([3]; 320 g/ha): 90%
- Post-emergence efficacy against ALOMY in % ([3]; 1280 g/ha): 90%
- Post-emergence efficacy against LOLRI in % (Lolium rigidum (LOLRI); application rate 80 g/ha): 80%
- Post-emergence efficacy against LOLRI in % (Lolium rigidum (LOLRI); application rate 320 g/ha): 100%

Compound: O=S(=O)(CCC(F)(F)F)Oc1c(F)cccc1Oc1ncc(Cl)cn1 [Example I-48]
- Post-emergence efficacy against ZEAMX in % (Zea mays (ZEAMX); application rate 80 g/ha): 0%
- Post-emergence efficacy against ALOMY in % ([3]; 1280 g/ha): 90%
- Post-emergence efficacy against LOLRI in % (Lolium rigidum (LOLRI); application rate 320 g/ha): 90%

Compound: C=CCS(=O)(=O)Oc1ccccc1Oc1ncc(Cl)cn1 [Example I-36]
- Post-emergence efficacy against ZEAMX in % (Zea mays (ZEAMX); application rate 80 g/ha): 0%
- Post-emergence efficacy against ZEAMX in % (Zea mays (ZEAMX); application rate 320 g/ha): 0%
- Pre-emergence efficacy against GLXMA in % (Glycine max (GLXMA); application rate 80 g/ha): 0%

Compound: O=S(=O)(CC1CC1(Cl)Cl)Oc1c(F)cccc1Oc1ncc(Cl)cn1 (stereo not shown) [Example I-57]
- Post-emergence efficacy against MATIN ([4]; 320 g/ha): 90%
- Post-emergence efficacy against MATIN ([4]; 1280 g/ha): 90%
